Data: patent US10294202B2, “Pyrrolidinones as herbicides” (FMC Corporation, priority 2013, dated 2019)

How the values were obtained:
rice = experiment: Test B flooded paddy test; assay type: in vivo, Oryza sativa; settings: 500 g ai/ha, Flood; scale of 0 to 100 where 0 is no effect and 100 is complete control
Outline: (§1)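 Scoring: visual, compared with untreated controls, 0 = no effect through 100 = complete control, taken 13 to 15 days after treatment in the greenhouse. Compounds had been added to paddy water over soil flooded 3 cm deep at the plants' 2-leaf stage.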

waterhemp = experiment: Test C pre-/postemergence herbicide test; assay type: in vivo, Amaranthus rudis
Outline: (§2)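 Plants grown and held in a greenhouse for 13 to 15 days post-spray, then rated 0–100 by visual comparison with controls. Pre treatments targeted seeds in loam and sand; post treatments targeted 1- to 4-leaf plants in peat-based potting medium.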

giant foxtail = experiment: Test A pre-/postemergence herbicide test; assay type: in vivo, Setaria faberii
Outline: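 Approximately 10 days after treatment in the greenhouse, plants were compared with untreated controls and given a 0–100 visual injury rating. Applications: preemergence directed soil spray; postemergence on 2–10 cm plants at the one- to two-leaf stage.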

barnyardgrass = experiment: Test B flooded paddy test; assay type: in vivo, Echinochloa crus-galli; settings: 500 g ai/ha, Flood; scale of 0 to 100 where 0 is no effect and 100 is complete control
Outline: as §1

nutsedge, yellow = experiment: Test C pre-/postemergence herbicide test; assay type: in vivo, Cyperus esculentus
Outline: as §2

ragweed = experiment: Test C pre-/postemergence herbicide test; assay type: in vivo, Ambrosia elatior
Outline: as §2

oilseed rape = experiment: Test C pre-/postemergence herbicide test; assay type: in vivo, Brassica napus
Outline: as §2

ducksalad = experiment: Test B flooded paddy test; assay type: in vivo, Heteranthera limosa; settings: 500 g ai/ha, Flood; scale of 0 to 100 where 0 is no effect and 100 is complete control
Outline: as §1

velvetleaf = experiment: Test C pre-/postemergence herbicide test; assay type: in vivo, Abutilon theophrasti
Outline: as §2

pigweed = experiment: Test C pre-/postemergence herbicide test; assay type: in vivo, Amaranthus retroflexus
Outline: as §2

blackgrass = experiment: Test C pre-/postemergence herbicide test; assay type: in vivo, Alopecurus myosuroides
Outline: as §2

oat, wild = experiment: Test C pre-/postemergence herbicide test; assay type: in vivo, Avena fatua; settings: Postemergence
Outline: as §2

sedge, umbrella = experiment: Test B flooded paddy test; assay type: in vivo, Cyperus difformis; settings: 500 g ai/ha, Flood; scale of 0 to 100 where 0 is no effect and 100 is complete control
Outline: as §1

[1] = Postemergence, 31 g ai/ha, scale 0 to 100 (0 no effect, 100 complete control)
[2] = Postemergence, 62 g ai/ha, scale 0 (no effect) to 100 (complete control)
[3] = Postemergence, 125 g ai/ha, scale 0 to 100 (0 no effect, 100 complete control)
[4] = Postemergence, 250 g ai/ha, scale 0 to 100 (0 no effect, 100 complete control)
[5] = Preemergence, 31 g ai/ha, scale 0 to 100, 0 is no effect and 100 is complete control
[6] = Preemergence, 62 g ai/ha, scale 0 to 100
[7] = Preemergence, 125 g ai/ha, scale 0 to 100 (0 no effect, 100 complete control)
[8] = 31 g ai/ha, scale 0 to 100 (0 no effect, 100 complete control)
[9] = 62 g ai/ha, scale 0 (no effect) to 100 (complete control)
[10] = 125 g ai/ha, scale 0 to 100 (0 no effect, 100 complete control)
[11] = 250 g ai/ha, scale 0 to 100 (0 no effect, 100 complete control)
[12] = Preemergence, 62 g ai/ha, scale 0 to 100 (0 no effect, 100 complete control)

With `O=C1NCC(c2ccc(F)cc2)C1C(=O)Nc1cccc(F)c1F` (racemic) [Compound 119] the “Plant response rating, Rice” value (rice) was 10, the “Plant response rating, Waterhemp” value (waterhemp; [1]) was 0 and the “Plant response rating, Waterhemp” value (waterhemp; [2]) was 0. The “Plant response rating, Waterhemp” value (waterhemp; [3]) was 0, the “Plant response rating, Waterhemp” value (waterhemp; [4]) was 40 and the “Waterhemp plant response rating” value (waterhemp; [5]) was 20. The “Plant response rating, Waterhemp” value (waterhemp; [6]) was 65, the “Plant response rating, Waterhemp” value (waterhemp; [7]) was 70 and the “Plant response rating (scale of 0 to 100), Waterhemp” value (waterhemp; Preemergence, 250 g ai/ha) was 80. The “Plant response rating, Foxtail, Giant” value (giant foxtail; 125 g ai/ha, visual rating, 0 to 100 scale, 0 no effect, 100 complete control, approximately 10 days, preemergence) was 90, the “Plant response rating, Foxtail, Giant” value (giant foxtail; Postemergence, 125 g ai/ha, 0 to 100 scale, 0 no effect, 100 complete control) was 90 and the “Foxtail, Giant plant response rating (0 to 100 scale, 0 is no effect, 100 is complete control)” value (giant foxtail; Postemergence, 500 g ai/ha) was 90. For the same molecule, the “Plant response rating, Foxtail, Giant” value (giant foxtail; preemergence, 500 g ai/ha, 0 to 100 scale) was 90, the “Plant response rating, Barnyardgrass” value (barnyardgrass) was 80 and the “Plant response rating, Nutsedge, Yellow” value (nutsedge, yellow; [1]) was 0. For the same molecule, the “Plant response rating, Nutsedge, Yellow” value (nutsedge, yellow; [2]) was 0, the “Plant response rating, Nutsedge, Yellow” value (nutsedge, yellow; [3]) was 0 and the “Plant response rating, Nutsedge, Yellow” value (nutsedge, yellow; [4]) was 0. The “Nutsedge, Yellow plant response rating” value (nutsedge, yellow; [5]) was 0, the “Plant response rating, Nutsedge, Yellow” value (nutsedge, yellow; [6]) was 0 and the “Plant response rating, Nutsedge, Yellow” value (nutsedge, yellow; [7]) was 0. For the same molecule, the “Plant response rating (scale of 0 to 100), Nutsedge, Yellow” value (nutsedge, yellow; Preemergence, 250 g ai/ha) was 0, the “Plant response rating, Ragweed” value (ragweed; [1]) was 20 and the “Plant response rating, Ragweed” value (ragweed; [2]) was 0. The “Plant response rating, Ragweed” value (ragweed; [3]) was 45, the “Plant response rating, Ragweed” value (ragweed; [4]) was 25 and the “Ragweed plant response rating” value (ragweed; [5]) was 60. For the same molecule, the “Plant response rating, Ragweed” value (ragweed; [6]) was 35, the “Plant response rating, Ragweed” value (ragweed; [7]) was 75 and the “Plant response rating (scale of 0 to 100), Ragweed” value (ragweed; Preemergence, 250 g ai/ha) was 80. The “Plant response rating, Oilseed Rape” value (oilseed rape; [1]) was 0, the “Plant response rating, Oilseed Rape” value (oilseed rape; [2]) was 0 and the “Plant response rating, Oilseed Rape” value (oilseed rape; [3]) was 0. For the same molecule, the “Plant response rating, Oilseed Rape” value (oilseed rape; [4]) was 5, the “Oilseed Rape plant response rating” value (oilseed rape; [5]) was 0 and the “Plant response rating, Oilseed Rape” value (oilseed rape; [6]) was 5. The “Plant response rating, Oilseed Rape” value (oilseed rape; [7]) was 80, the “Plant response rating (scale of 0 to 100), Oilseed Rape” value (oilseed rape; Preemergence, 250 g ai/ha) was 80 and the “Plant response rating, Ducksalad” value (ducksalad) was 100. The “Plant response rating, Velvetleaf” value (velvetleaf; [1]) was 0, the “Plant response rating, Velvetleaf” value (velvetleaf; [2]) was 0 and the “Plant response rating, Velvetleaf” value (velvetleaf; [3]) was 15. For the same molecule, the “Plant response rating, Velvetleaf” value (velvetleaf; [4]) was 20, the “Velvetleaf plant response rating” value (velvetleaf; [5]) was 0 and the “Plant response rating, Velvetleaf” value (velvetleaf; [6]) was 15. The “Plant response rating, Velvetleaf” value (velvetleaf; [7]) was 40, the “Plant response rating (scale of 0 to 100), Velvetleaf” value (velvetleaf; Preemergence, 250 g ai/ha) was 50 and the “Plant response rating, Pigweed” value (pigweed; [1]) was 10. For the same molecule, the “Plant response rating, Pigweed” value (pigweed; [2]) was 10, the “Plant response rating, Pigweed” value (pigweed; [3]) was 15 and the “Plant response rating, Pigweed” value (pigweed; [4]) was 25. For the same molecule, the “Pigweed plant response rating” value (pigweed; [5]) was 30, the “Plant response rating, Pigweed” value (pigweed; [6]) was 60 and the “Plant response rating, Pigweed” value (pigweed; [7]) was 75. The “Plant response rating (scale of 0 to 100), Pigweed” value (pigweed; Preemergence, 250 g ai/ha) was 85, the “Plant response rating, Blackgrass” value (blackgrass; [1]) was 0 and the “Plant response rating, Blackgrass” value (blackgrass; [2]) was 0. The “Plant response rating, Blackgrass” value (blackgrass; [3]) was 0, the “Plant response rating, Blackgrass” value (blackgrass; [4]) was 0 and the “Blackgrass plant response rating” value (blackgrass; [5]) was 0. For the same molecule, the “Plant response rating, Blackgrass” value (blackgrass; [6]) was 70, the “Plant response rating, Blackgrass” value (blackgrass; [7]) was 80 and the “Plant response rating (scale of 0 to 100), Blackgrass” value (blackgrass; Preemergence, 250 g ai/ha) was 85. The “Plant response rating, Oat, Wild” value (oat, wild; [8]) was 0, the “Plant response rating, Oat, Wild” value (oat, wild; [9]) was 0 and the “Plant response rating, Oat, Wild” value (oat, wild; [10]) was 0. For the same molecule, the “Plant response rating, Oat, Wild” value (oat, wild; [11]) was 0 and the “Plant response rating, Sedge, Umbrella” value (sedge, umbrella) was 0.

With `O=C1NCC(c2cccc(Cl)c2)C1C(=O)Nc1cccc(F)c1F` (racemic) [Compound 275] the “Plant response rating, Rice” value (rice) was 0, the “Plant response rating, Waterhemp” value (waterhemp; [1]) was 0 and the “Plant response rating, Waterhemp” value (waterhemp; [2]) was 0. For the same molecule, the “Plant response rating, Waterhemp” value (waterhemp; [3]) was 0, the “Plant response rating, Waterhemp” value (waterhemp; [4]) was 20 and the “Waterhemp plant response rating” value (waterhemp; [5]) was 0. For the same molecule, the “Waterhemp plant response rating” value (waterhemp; [12]) was 0, the “Plant response rating, Waterhemp” value (waterhemp; [7]) was 15 and the “Plant response rating (scale of 0 to 100), Waterhemp” value (waterhemp; Preemergence, 250 g ai/ha) was 60. For the same molecule, the “Plant response rating, Foxtail, Giant” value (giant foxtail; Postemergence, 125 g ai/ha, 0 to 100 scale, 0 is no effect, 100 is complete control) was 90, the “Plant response rating, Foxtail, Giant” value (giant foxtail; Postemergence, 500 g ai/ha, 0 to 100 scale (0 no effect, 100 complete control)) was 90 and the “Plant response rating, Foxtail, Giant” value (giant foxtail; Preemergence, 125 g ai/ha, 0 to 100 scale where 0 is no effect and 100 is complete control) was 90. The “Plant response rating, Foxtail, Giant” value (giant foxtail; preemergence, 500 g ai/ha, 0 to 100 scale, 0 is no effect and 100 is complete control) was 90, the “Plant response rating, Barnyardgrass” value (barnyardgrass) was 85 and the “Plant response rating, Nutsedge, Yellow” value (nutsedge, yellow; [1]) was 0. The “Plant response rating, Nutsedge, Yellow” value (nutsedge, yellow; [2]) was 0, the “Plant response rating, Nutsedge, Yellow” value (nutsedge, yellow; [3]) was 0 and the “Plant response rating, Nutsedge, Yellow” value (nutsedge, yellow; [4]) was 20. The “Nutsedge, Yellow plant response rating” value (nutsedge, yellow; [5]) was 45, the “Nutsedge, Yellow plant response rating” value (nutsedge, yellow; [12]) was 25 and the “Plant response rating, Nutsedge, Yellow” value (nutsedge, yellow; [7]) was 35. For the same molecule, the “Plant response rating (scale of 0 to 100), Nutsedge, Yellow” value (nutsedge, yellow; Preemergence, 250 g ai/ha) was 100, the “Plant response rating, Ragweed” value (ragweed; [1]) was 20 and the “Plant response rating, Ragweed” value (ragweed; [2]) was 65. The “Plant response rating, Ragweed” value (ragweed; [3]) was 70, the “Plant response rating, Ragweed” value (ragweed; [4]) was 70 and the “Ragweed plant response rating” value (ragweed; [5]) was 5. For the same molecule, the “Ragweed plant response rating” value (ragweed; [12]) was 5, the “Plant response rating, Ragweed” value (ragweed; [7]) was 60 and the “Plant response rating (scale of 0 to 100), Ragweed” value (ragweed; Preemergence, 250 g ai/ha) was 85. The “Plant response rating, Oilseed Rape” value (oilseed rape; [1]) was 5, the “Plant response rating, Oilseed Rape” value (oilseed rape; [2]) was 5 and the “Plant response rating, Oilseed Rape” value (oilseed rape; [3]) was 35. The “Plant response rating, Oilseed Rape” value (oilseed rape; [4]) was 45, the “Oilseed Rape plant response rating” value (oilseed rape; [5]) was 0 and the “Oilseed Rape plant response rating” value (oilseed rape; [12]) was 50. For the same molecule, the “Plant response rating, Oilseed Rape” value (oilseed rape; [7]) was 90, the “Plant response rating (scale of 0 to 100), Oilseed Rape” value (oilseed rape; Preemergence, 250 g ai/ha) was 90 and the “Plant response rating, Ducksalad” value (ducksalad) was 100. The “Plant response rating, Velvetleaf” value (velvetleaf; [1]) was 5, the “Plant response rating, Velvetleaf” value (velvetleaf; [2]) was 10 and the “Plant response rating, Velvetleaf” value (velvetleaf; [3]) was 10. For the same molecule, the “Plant response rating, Velvetleaf” value (velvetleaf; [4]) was 50, the “Velvetleaf plant response rating” value (velvetleaf; [5]) was 0 and the “Velvetleaf plant response rating” value (velvetleaf; [12]) was 0. For the same molecule, the “Plant response rating, Velvetleaf” value (velvetleaf; [7]) was 25, the “Plant response rating (scale of 0 to 100), Velvetleaf” value (velvetleaf; Preemergence, 250 g ai/ha) was 30 and the “Plant response rating, Pigweed” value (pigweed; [1]) was 5. The “Plant response rating, Pigweed” value (pigweed; [2]) was 5, the “Plant response rating, Pigweed” value (pigweed; [3]) was 30 and the “Plant response rating, Pigweed” value (pigweed; [4]) was 35. The “Pigweed plant response rating” value (pigweed; [5]) was 0, the “Pigweed plant response rating” value (pigweed; [12]) was 0 and the “Plant response rating, Pigweed” value (pigweed; [7]) was 10. The “Plant response rating (scale of 0 to 100), Pigweed” value (pigweed; Preemergence, 250 g ai/ha) was 40, the “Plant response rating, Blackgrass” value (blackgrass; [1]) was 0 and the “Plant response rating, Blackgrass” value (blackgrass; [2]) was 0. The “Plant response rating, Blackgrass” value (blackgrass; [3]) was 5, the “Plant response rating, Blackgrass” value (blackgrass; [4]) was 40 and the “Blackgrass plant response rating” value (blackgrass; [5]) was 45. The “Blackgrass plant response rating” value (blackgrass; [12]) was 60, the “Plant response rating, Blackgrass” value (blackgrass; [7]) was 70 and the “Plant response rating (scale of 0 to 100), Blackgrass” value (blackgrass; Preemergence, 250 g ai/ha) was 80. For the same molecule, the “Plant response rating, Oat, Wild” value (oat, wild; [8]) was 0, the “Plant response rating, Oat, Wild” value (oat, wild; [9]) was 0 and the “Plant response rating, Oat, Wild” value (oat, wild; [10]) was 0. The “Plant response rating, Oat, Wild” value (oat, wild; [11]) was 5 and the “Plant response rating, Sedge, Umbrella” value (sedge, umbrella) was 30.
